Data from ChEMBL document CHEMBL4507291 (2021).

Assays:
[1] = target: Beta-1 adrenergic receptor (Homo sapiens) (UniProt P08588); settings: Compound concentration 10.0 uM
[2] = target: T1, Serine/threonine-protein kinase BRSK1 (Homo sapiens) (UniProt Q8TDC3); test: BRSK1 (SAD1) Kinase screen; settings: Compound concentration 1.0 uM
T1 sequence (whole entry): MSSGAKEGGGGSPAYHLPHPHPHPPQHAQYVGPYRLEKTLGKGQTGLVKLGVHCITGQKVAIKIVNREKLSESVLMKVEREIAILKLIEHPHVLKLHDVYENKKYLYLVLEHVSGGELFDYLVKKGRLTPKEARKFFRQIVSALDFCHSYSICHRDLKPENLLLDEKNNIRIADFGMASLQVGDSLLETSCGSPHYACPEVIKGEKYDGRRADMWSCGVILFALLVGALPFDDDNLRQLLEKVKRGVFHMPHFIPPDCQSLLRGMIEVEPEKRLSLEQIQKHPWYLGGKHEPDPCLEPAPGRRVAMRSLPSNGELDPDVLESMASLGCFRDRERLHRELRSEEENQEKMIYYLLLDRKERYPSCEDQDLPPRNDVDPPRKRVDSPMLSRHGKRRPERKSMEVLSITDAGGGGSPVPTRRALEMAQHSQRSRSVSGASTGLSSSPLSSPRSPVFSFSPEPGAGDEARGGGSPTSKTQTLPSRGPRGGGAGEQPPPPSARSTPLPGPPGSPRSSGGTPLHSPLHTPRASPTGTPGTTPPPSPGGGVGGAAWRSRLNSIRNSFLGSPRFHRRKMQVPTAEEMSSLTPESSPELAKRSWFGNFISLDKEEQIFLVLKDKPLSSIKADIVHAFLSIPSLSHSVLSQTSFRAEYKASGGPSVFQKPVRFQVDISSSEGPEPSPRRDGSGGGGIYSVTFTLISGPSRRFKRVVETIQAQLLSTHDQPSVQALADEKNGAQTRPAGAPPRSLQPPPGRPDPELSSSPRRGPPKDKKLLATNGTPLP

[3] = target: Acetylcholinesterase (Homo sapiens) (UniProt P22303); settings: Compound concentration 10.0 uM
[4] = target: T2, 5-hydroxytryptamine receptor 3A (Homo sapiens) (UniProt P46098); test: Inhibition of Serotonin (5-Hydroxytryptamine) 5-HT3 at 10 µM in the Eurofins-Panlabs radioligand binding assay (Eurofins_assay_271910); set-up: ligand concentration 0.69 nM; settings: Compound concentration 10.0 uM
T2 sequence (whole entry): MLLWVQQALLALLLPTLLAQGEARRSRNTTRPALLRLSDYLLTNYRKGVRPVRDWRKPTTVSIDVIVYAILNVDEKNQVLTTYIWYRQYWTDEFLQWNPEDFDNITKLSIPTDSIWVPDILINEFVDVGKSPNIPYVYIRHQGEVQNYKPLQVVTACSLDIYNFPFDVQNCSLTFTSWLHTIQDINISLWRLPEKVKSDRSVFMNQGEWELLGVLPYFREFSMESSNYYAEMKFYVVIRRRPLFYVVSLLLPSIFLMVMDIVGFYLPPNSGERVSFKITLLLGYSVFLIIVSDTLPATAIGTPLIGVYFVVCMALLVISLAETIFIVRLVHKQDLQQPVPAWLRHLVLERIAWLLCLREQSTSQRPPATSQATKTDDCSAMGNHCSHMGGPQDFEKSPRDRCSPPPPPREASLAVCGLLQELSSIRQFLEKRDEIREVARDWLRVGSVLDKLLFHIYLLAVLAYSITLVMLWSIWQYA

[5] = target: 5-hydroxytryptamine receptor 2B (Homo sapiens, UniProt P41595); test: Inhibition of Serotonin (5-Hydroxytryptamine) 5-HT2B at compound concentration of 10.0 uM in the Eurofins-Panlabs radioligand binding assay (Eurofins_assay_271700); set-up: ligand concentration 1.2 nM, non-specific ligand with concentration 10 uM Serotonin (5-HT), incubation time 60 min, incubation temperature 37 C
[6] = target: Mitogen-activated protein kinase 3 (Homo sapiens) (UniProt P27361); test: MAPK3 (ERK1) Kinase screen; settings: Compound concentration 1.0 uM
Sequence of Mitogen-activated protein kinase 3 (Homo sapiens) (P27361 whole entry): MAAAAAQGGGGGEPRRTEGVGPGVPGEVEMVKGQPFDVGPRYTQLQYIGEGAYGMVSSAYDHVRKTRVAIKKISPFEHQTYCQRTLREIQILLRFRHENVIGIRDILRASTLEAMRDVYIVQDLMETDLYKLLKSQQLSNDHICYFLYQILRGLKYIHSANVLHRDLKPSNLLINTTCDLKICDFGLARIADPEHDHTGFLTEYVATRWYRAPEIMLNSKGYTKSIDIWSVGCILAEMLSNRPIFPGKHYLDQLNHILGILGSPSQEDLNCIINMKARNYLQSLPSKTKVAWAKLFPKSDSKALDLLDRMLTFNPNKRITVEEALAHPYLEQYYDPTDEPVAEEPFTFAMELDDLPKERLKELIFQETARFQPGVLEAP

Sequence of Acetylcholinesterase (Homo sapiens) (P22303 whole entry): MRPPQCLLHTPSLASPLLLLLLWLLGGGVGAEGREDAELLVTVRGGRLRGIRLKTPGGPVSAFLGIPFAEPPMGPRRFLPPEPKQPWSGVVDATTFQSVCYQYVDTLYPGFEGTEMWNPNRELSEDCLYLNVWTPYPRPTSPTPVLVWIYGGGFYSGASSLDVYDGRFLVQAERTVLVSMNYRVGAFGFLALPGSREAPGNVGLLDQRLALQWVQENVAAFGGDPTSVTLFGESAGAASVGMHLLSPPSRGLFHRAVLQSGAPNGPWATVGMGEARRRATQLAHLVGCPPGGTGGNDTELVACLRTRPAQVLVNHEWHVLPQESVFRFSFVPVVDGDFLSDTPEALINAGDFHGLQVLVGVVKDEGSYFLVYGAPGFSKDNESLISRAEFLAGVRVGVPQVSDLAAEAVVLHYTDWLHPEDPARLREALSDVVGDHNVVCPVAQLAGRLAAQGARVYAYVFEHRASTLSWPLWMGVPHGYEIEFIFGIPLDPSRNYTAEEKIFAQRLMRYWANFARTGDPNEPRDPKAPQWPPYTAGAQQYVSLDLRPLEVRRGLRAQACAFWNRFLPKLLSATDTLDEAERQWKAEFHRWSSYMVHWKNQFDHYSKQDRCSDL
Sequence of Beta-1 adrenergic receptor (Homo sapiens) (P08588 whole entry, looked up): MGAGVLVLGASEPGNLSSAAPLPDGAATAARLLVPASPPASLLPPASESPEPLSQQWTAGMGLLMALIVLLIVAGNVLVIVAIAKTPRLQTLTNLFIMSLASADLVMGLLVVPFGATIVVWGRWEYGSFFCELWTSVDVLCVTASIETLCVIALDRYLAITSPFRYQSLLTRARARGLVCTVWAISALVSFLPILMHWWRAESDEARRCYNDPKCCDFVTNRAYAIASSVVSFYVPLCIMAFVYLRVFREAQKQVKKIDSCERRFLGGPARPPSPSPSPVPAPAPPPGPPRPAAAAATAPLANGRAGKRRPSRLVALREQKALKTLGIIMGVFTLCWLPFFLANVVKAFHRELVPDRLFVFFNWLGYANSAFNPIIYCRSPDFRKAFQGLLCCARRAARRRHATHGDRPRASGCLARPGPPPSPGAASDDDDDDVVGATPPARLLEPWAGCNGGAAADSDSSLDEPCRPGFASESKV
Sequence of 5-hydroxytryptamine receptor 2B (P41595 whole entry): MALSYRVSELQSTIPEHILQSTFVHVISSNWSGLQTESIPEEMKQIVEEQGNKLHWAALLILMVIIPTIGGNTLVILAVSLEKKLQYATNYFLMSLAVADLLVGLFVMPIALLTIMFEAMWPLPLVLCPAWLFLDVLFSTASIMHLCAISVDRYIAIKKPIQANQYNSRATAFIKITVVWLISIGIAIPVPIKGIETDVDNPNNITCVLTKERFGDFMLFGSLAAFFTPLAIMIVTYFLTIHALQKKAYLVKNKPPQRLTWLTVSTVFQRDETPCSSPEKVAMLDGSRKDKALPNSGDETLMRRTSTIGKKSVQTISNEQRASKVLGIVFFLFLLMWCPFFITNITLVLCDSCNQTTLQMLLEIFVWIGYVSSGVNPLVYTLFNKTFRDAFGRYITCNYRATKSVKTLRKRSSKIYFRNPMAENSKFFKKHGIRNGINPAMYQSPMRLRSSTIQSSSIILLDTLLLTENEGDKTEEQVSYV

Row | SMILES | inhibition [1] | inhibition [2] | inhibition [3] | inhibition [4] | Ki [5] | inhibition [6]
1 | C[C@@H]1CN(c2cc(-c3nn(C)c4ccc(OC5(C)CC5)cc34)ncn2)C[C@H](C)O1 [MLi-2-NC] | 5.75% | – | – | – | – | –
2 | C[C@@H]1CN(c2cc(-c3n[nH]c4ccc(OC5(C)CC5)cc34)ncn2)C[C@H](C)O1 [MLi-2] | – | 4.76% | -2% | -9% | 750 nM | 18.7%
